From PubChem BioAssay (NCI)
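1) Cells in 96-well plates. 2) Compound, 48 h, 5 concentrations. 3) Linear interpolation between surrounding doses. 4) Unreached endpoint = highest concentration. At the TGI there is no net growth.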

Legend:
Experiment in all cases: NCI tumour cell line growth inhibition, 48 h
SNB-19 CNS = system: SNB-19 CNS
TK-10 renal = system: TK-10 renal
SF-539 CNS = system: SF-539 CNS
UACC-62 melanoma = system: UACC-62 melanoma
NCI-H226 lung = system: NCI-H226 lung
LXFL 529 NSCLC = system: LXFL 529 NSCLC
HL-60(TB) leukemia = system: HL-60(TB) leukemia
DMS 273 small cell lung = system: DMS 273 small cell lung
HT29 colon = system: HT29 colon
HCC-2998 colon = system: HCC-2998 colon
SN12C renal = system: SN12C renal
HOP-18 NSCLC = system: HOP-18 NSCLC
HCT-15 colon = system: HCT-15 colon
SF-268 CNS = system: SF-268 CNS
HOP-62 NSCLC = system: HOP-62 NSCLC
SK-OV-3 ovarian = system: SK-OV-3 ovarian
ACHN renal = system: ACHN renal
KM12 colon = system: KM12 colon
OVCAR-5 ovarian = system: OVCAR-5 ovarian
SR leukemia = system: SR leukemia
SNB-78 CNS = system: SNB-78 CNS
SK-MEL-2 melanoma = system: SK-MEL-2 melanoma
IGROV1 ovarian = system: IGROV1 ovarian
SF-295 CNS = system: SF-295 CNS
SK-MEL-5 melanoma = system: SK-MEL-5 melanoma
HOP-92 NSCLC = system: HOP-92 NSCLC
LOX IMVI melanoma = system: LOX IMVI melanoma
OVCAR-4 ovarian = system: OVCAR-4 ovarian
U251 CNS = system: U251 CNS
EKVX NSCLC = system: EKVX NSCLC
MOLT-4 leukemia = system: MOLT-4 leukemia
786-0 renal = system: 786-0 renal
SK-MEL-28 melanoma = system: SK-MEL-28 melanoma
OVCAR-3 ovarian = system: OVCAR-3 ovarian
RPMI-8226 leukemia = system: RPMI-8226 leukemia
DLD-1 colon = system: DLD-1 colon
NCI-H460 lung = system: NCI-H460 lung
SW-620 colon = system: SW-620 colon
XF 498 CNS = system: XF 498 CNS
RXF 393 renal = system: RXF 393 renal
NCI-H23 lung = system: NCI-H23 lung
M14 melanoma = system: M14 melanoma
CAKI-1 renal = system: CAKI-1 renal
KM20L2 colon = system: KM20L2 colon
UO-31 renal = system: UO-31 renal
COLO 205 colon = system: COLO 205 colon
DMS 114 small cell lung = system: DMS 114 small cell lung
HCT-116 colon = system: HCT-116 colon
A549 NSCLC = system: A549 NSCLC
OVCAR-8 ovarian = system: OVCAR-8 ovarian
A498 renal = system: A498 renal
UACC-257 melanoma = system: UACC-257 melanoma
CCRF-CEM leukemia = system: CCRF-CEM leukemia
M19-MEL melanoma = system: M19-MEL melanoma
NCI-H522 lung = system: NCI-H522 lung
K-562 leukemia = system: K-562 leukemia
MALME-3M melanoma = system: MALME-3M melanoma
SNB-75 CNS = system: SNB-75 CNS

Measured: TGI

CN(C)[C@@H]1C(=O)C(C(=O)NCNCCCC(=O)O)=C(O)[C@@]2(O)C(=O)C3=C(O)c4c(O)cccc4[C@@](C)(O)[C@H]3C[C@@H]12
not listed: MALME-3M melanoma | SNB-75 CNS
> 100 µM: all other assays above

COC1(OC)CC2C(=O)N(Cc3ccccc3)C1CC2S(=O)(=O)c1ccccc1 (stereo not drawn)
98.7 µM: XF 498 CNS
not listed: LXFL 529 NSCLC | HCC-2998 colon | SF-268 CNS | OVCAR-5 ovarian | SR leukemia | SNB-78 CNS | HOP-92 NSCLC | OVCAR-4 ovarian | CAKI-1 renal | KM20L2 colon | A498 renal
> 100 µM: all other assays above
